Series [1] deals with T1, Phospholipase D2 (Homo sapiens, UniProt O14939). Briefly: Inhibition of GFP-fused PLD2 (unknown origin) expressed in HEK293 cells by cellular assay. In kind it is cell-based.
Series [2] concerns the target T2, Phospholipase D1 (Homo sapiens, UniProt Q13393).
T2 sequence (Q13393 whole entry): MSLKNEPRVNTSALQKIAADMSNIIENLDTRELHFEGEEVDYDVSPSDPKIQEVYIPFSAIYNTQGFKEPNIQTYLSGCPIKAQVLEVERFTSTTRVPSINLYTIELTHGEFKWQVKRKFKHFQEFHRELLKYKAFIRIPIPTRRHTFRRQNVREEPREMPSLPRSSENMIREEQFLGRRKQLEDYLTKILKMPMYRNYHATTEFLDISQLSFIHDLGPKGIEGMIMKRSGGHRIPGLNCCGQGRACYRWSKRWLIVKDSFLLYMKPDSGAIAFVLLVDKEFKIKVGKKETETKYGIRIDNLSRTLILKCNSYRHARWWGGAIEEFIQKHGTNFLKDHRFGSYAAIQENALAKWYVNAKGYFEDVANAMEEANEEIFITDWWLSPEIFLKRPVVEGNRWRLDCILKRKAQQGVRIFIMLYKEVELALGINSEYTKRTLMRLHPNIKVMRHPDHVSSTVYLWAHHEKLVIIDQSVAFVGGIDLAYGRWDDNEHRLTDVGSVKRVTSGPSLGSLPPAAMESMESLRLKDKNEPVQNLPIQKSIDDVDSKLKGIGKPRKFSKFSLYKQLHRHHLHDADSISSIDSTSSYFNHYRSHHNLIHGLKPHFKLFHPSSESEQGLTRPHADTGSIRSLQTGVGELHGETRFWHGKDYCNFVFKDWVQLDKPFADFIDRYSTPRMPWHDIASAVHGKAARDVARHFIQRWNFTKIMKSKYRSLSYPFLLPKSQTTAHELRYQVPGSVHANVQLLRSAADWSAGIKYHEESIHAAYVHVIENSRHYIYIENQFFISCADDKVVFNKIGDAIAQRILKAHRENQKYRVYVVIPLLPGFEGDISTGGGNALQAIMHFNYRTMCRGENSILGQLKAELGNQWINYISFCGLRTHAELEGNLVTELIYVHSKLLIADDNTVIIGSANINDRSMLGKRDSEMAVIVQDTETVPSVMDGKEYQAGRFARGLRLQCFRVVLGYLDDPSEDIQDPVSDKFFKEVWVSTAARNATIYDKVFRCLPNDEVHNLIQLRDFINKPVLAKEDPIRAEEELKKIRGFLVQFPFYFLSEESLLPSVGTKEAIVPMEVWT
Briefly: Inhibition of PLD1 in human Calu1 cells. Type of series: cell-based.

Series [3] can be described thus: Fraction unbound in human plasma. In kind it is ADME, cell-free.
A short description of series [4]: Fraction unbound in rat brain. In kind it is ADME, tissue-based.
Series [5] can be described thus: Fraction unbound in rat plasma. In kind it is ADME, cell-free.
Series [6] is described as follows: Half life in rat at […], iv administered as cassette dose. Type of series: ADME, organism-based. The note with it: in vivo.
The nature of series [7]: Volume of distribution at steady state in rat at […], iv administered as cassette dose. The note with it: in vivo, read-out: Vdss. In kind it is ADME, organism-based.
Series [8] in a line: […] clearance in rat at […], iv administered as cassette dose. In kind it is ADME, organism-based. To be noted: in vivo.
Series [9] deals with T2, Phospholipase D1.
Description: Inhibition of PLD1 (unknown origin)
For another series, the species on record is Homo sapiens. Briefly: Selectivity ratio of IC50 for […] (unknown origin) to IC50 for […] (unknown origin).
The target in series [10] is T1, Phospholipase D2.
Description: Inhibition of PLD2 (unknown origin)

pIC50: −log10 of the molar value. Some results are limits rather than exact numbers.

The source of these data is ChEMBL document CHEMBL4325916, “Isoform selective PLD inhibition by novel, chiral 2,8-diazaspiro[4.5]decan-1-one derivatives” (Bioorg Med Chem Lett, 2018).

T1 sequence (O14939 whole entry, the tested form may be a part): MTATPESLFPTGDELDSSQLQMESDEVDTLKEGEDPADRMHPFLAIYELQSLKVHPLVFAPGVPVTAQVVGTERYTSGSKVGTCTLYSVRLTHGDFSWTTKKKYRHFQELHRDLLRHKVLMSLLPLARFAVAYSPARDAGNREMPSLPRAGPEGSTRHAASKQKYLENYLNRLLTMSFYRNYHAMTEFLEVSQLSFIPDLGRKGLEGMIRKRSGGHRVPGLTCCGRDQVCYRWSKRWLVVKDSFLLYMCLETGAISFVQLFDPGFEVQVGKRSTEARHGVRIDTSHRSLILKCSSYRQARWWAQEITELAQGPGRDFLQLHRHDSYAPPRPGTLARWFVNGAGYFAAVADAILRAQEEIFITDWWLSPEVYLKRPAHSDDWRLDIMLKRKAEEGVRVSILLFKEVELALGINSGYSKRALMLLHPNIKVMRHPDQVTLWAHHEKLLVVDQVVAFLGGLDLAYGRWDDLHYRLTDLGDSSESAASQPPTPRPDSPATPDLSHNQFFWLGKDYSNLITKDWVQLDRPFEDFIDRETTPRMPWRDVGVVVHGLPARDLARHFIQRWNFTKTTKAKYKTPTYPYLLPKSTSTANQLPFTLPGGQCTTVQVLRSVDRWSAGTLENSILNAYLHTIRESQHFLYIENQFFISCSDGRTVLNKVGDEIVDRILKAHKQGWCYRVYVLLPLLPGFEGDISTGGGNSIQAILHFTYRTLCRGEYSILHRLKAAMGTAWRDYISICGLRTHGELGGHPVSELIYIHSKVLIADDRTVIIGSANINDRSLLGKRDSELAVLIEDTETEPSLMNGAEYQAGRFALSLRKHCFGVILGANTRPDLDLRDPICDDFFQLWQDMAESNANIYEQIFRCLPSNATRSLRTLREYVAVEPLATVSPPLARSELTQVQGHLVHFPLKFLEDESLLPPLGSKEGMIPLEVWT

Broadly, the pIC50 is the IC50 on a negative log10 scale, so that one unit is a factor of ten. Higher therefore signals a small IC50. Take `O=C(C#Cc1ccccc1)NCCN1CCC2(CC1)C(=O)NC[C@H]2c1ccc(F)cc1`: the pIC50 against Phospholipase D2 [1] is 7.15; against Phospholipase D1 [2] it was 5.92. Also, the Fu in series [3] came out at 13.8%; in series [4], 1.3%; in series [5] it was 16%.

`C[C@@H](CN1CCC2(CC1)C(=O)NC[C@H]2c1ccc(F)cc1)NC(=O)c1cc2ccccc2[nH]1`: the pIC50 against Phospholipase D2 [1] is 7.92; on Phospholipase D1 [2], 9.00. The Fu was found to be 13.6% in series [3], 0.4% in series [4] and 13% in [5].

Regarding `C[C@@H](CN1CCC2(CC1)C(=O)NC[C@H]2c1ccc(F)cc1)NC(=O)c1ccc(F)cc1`, the pIC50 at Phospholipase D2 [1] is 6.68; against Phospholipase D1 [2], 6.60.

`C[C@@H](CN1CCC2(CC1)C(=O)NC[C@H]2c1ccc(F)cc1)NC(=O)C#Cc1ccccc1`: the pIC50 is 6.82 against Phospholipase D2 [1] and 7.80 against Phospholipase D1 [2].

A word on the half-life: it is how long it takes for the measured level to halve. A low value points to fast loss. Take `O=C(NCCN1CCC2(CC1)C(=O)NC[C@H]2c1ccc(F)cc1)c1cc2ccccc2[nH]1`: the negative logarithm of the IC50 (pIC50) on Phospholipase D2 [1] is 8.60; against Phospholipase D1 [2], 7.68. In [6], this molecule had a half-life of 3.63 h. Moreover, the Vd in series [7] came out at 80 L/kg. In series [8], the CLH is 340 mL/min/kg. Besides, the results for the Fu in series [3], in series [4] and in series [5] were 12.4%, 0.4% and 19.8%, respectively.

`C[C@@H](CN1CCC2(CC1)C(=O)NC[C@@H]2c1ccc(F)cc1)NC(=O)c1ccc(F)cc1`: the pIC50 against Phospholipase D2 [1] is 5.55; at Phospholipase D1 [2], 5.77.

`O=C(NCCN1CCC2(CC1)C(O)=NC[C@H]2c1ccc(F)cc1)c1ccc(F)cc1` showed a half-life in series [6] of 3.2 h. In addition, in series [7], the Vd was 56 L/kg. The CLH in series [8] was 250 mL/min/kg. Besides, the Fu in series [3] was 10.8%; in [4], 2.7%; in series [5] it was 24.6%.

Turning to `O=C(C#Cc1ccccc1)NCCN1CCC2(CC1)C(=O)NC[C@@H]2c1ccc(F)cc1`, the pIC50 was 6.09 against Phospholipase D2 [1] and 5.19 on Phospholipase D1 [2].

Consider `O=C(NCCN1CCC2(CC1)C(=O)NC[C@@H]2c1ccc(F)cc1)c1cc2ccccc2[nH]1`, for which the pIC50 was 7.37 against Phospholipase D2 [1] and 6.49 against Phospholipase D1 [2].

Turning to `C[C@@H](CN1CCC2(CC1)C(=O)NC[C@@H]2c1ccc(F)cc1)NC(=O)c1cc2ccccc2[nH]1`, the results for the pIC50 against Phospholipase D2 [1] and on Phospholipase D1 [2] were 6.85 and 7.80, respectively.

As to `C[C@@H](CN1CCC2(CC1)C(=O)NC[C@@H]2c1ccc(F)cc1)NC(=O)C#Cc1ccccc1`, the negative-log IC50 (pIC50) on Phospholipase D2 [1] is 5.40; on Phospholipase D1 [2] it was 6.49.

As for `O=C(NCCN1CCC2(CC1)C(=O)NCN2Cc1cccnc1)c1ccc2ccccc2c1`, the results for the negative logarithm of the IC50 (pIC50) on Phospholipase D1 [9] and on Phospholipase D2 [10] were below 4.52 and 6.44, respectively. Also, in the series listed under Homo sapiens, the Ratio IC50 was above 80.

Turning to `O=C(NCCN1CCC2(CC1)C(O)=NC[C@H]2c1ccc(F)cc1)c1cnc2ccccc2c1`, the Fu was determined as 12.2% in series [3], 2.6% in [4] and 31.4% in [5].

Turning to `C[C@@H](CN1CCC2(CC1)C(=O)NC[C@H]2c1ccc(F)cc1)NC(=O)c1ccc2ccccc2c1`, the negative logarithm of the IC50 (pIC50) against Phospholipase D2 [1] was 7.59; against Phospholipase D1 [2], 6.09. The Fu in series [3] was 4.5%; in series [4], 0.3%; in series [5], 6.1%.
